According to patent US8629149B2, “Oxopiperazine derivatives for the treatment of pain and epilepsy” (Zalicus Pharmaceuticals Ltd., priority 2009, dated 2014):

Tests used:
[1] = molecular target: T1, human Nav1.5 channel (Homo sapiens, UniProt Q14524); test: Nav1.5 sodium channel screening assay (PatchXpress, cardiac action potential waveform); format: cell-based
T1 construct: expressed in transfected cells; host or cells: HEK cells
Procedure: Inhibition of the TTX-resistant Nav1.5 sodium channel, a key cardiac ion channel, can have profound effects on the duration and amplitude of the cardiac action potential and can result in arrhythmias and other heart malfunctions. To assess the potential cardiac liability of compounds at an early stage in the drug discovery process, a Nav1.5 sodium channel screening assay is performed on Molecular Device's PatchXpress™ automated electrophysiology platform. Under voltage-calmp conditions, Nav1.5 currents are recorded from HEK cells expressing the human Nav1.5 channel in the absence and presence of increasing concentrations of the test compound to obtain an IC50 value. The external recording solution contained (in mM): 90 TEACl, 50 NaCl, 1.8 CaCl, 1 MgCl2, 10 HEPES, 10 glucose, adjusted to pH 7.4 with TEA-OH and to 300 mOsm with sucrose (if necessary), while the internal patch pipette solution contained (in mM): 129 CsF, 2 MgCl2, 11 EGTA, 10 HEPES, 3 Na2ATP adjusted to pH 7.2 with CsOH and to 290 mOsm with sucrose (if necessary). Nav1.5 channel currents were evoked using a cardiac action potential waveform at 1 Hz, digitized at 31.25 kHz and low-pass filtered at 12 kHz.

[2] = tested on: male CF1 mice; test: 6 Hz psychomotor seizure model of partial epilepsy; format: in vivo, mouse; design: Epilepsy 6 Hz (% Protected): concentration or dose not given beside the values
Procedure: Compounds were evaluated for the protection against seizures induced by a 6 Hz, 0.2 ms rectangular pulse width of 3 s duration, at a stimulus intensity of 32 mA (CC97) applied to the cornea of male CF1 mice (20-30 g) according to procedures described by Barton et al, “Pharmacological Characterization of the 6 Hz Psychomotor Seizure Model of Partial Epilepsy,” Epilepsy Res. 47(3):217-27 (2001). Seizures are characterised by the expression of one or more of the following behaviours: stun, forelimb clonus, twitching of the vibrissae and Straub-tail immediately following electrical stimulation.

[3] = Mouse rotarod assay; format: in vivo; conditions: mouse, in vivo, mice
Procedure: To assess a compound's undesirable side effects (toxicity), animals were monitored for overt signs of impaired neurological or muscular function. In mice, the rotarod procedure (Dunham and Miya, J. Am. Pharmacol. Assoc. 46:208-209 (1957)) is used to disclose minimal muscular or neurological impairment (MMI). When a mouse is placed on a rod that rotates at a speed of 6 rpm, the animal can maintain its equilibrium for long periods of time. The animal is considered toxic if it falls off this rotating rod three times during a […].

[4] = tested on: Lamina I/II spinal cord neurons; test: Lamina assay: current-clamp recordings on lamina I/II spinal cord neurons; format: cell-based, rat; conditions: lamina I and II neurons
Excerpt: Male Wistar rats (P6 to P9 for voltage-clamp and P15 to P18 for current-clamp recordings) were anaesthetized through intraperitoneal injection of Inactin (Sigma). The spinal cord was then rapidly dissected out and placed in an ice-cold solution protective sucrose solution containing (in mM): 50 sucrose, 92 NaCl, 15 D-Glucose, 26 NaHCO3, 5 KCl, 1.25 NaH2PO4, 0.5 CaCl2, 7 MgSO4, 1 kynurenic acid, and bubbled with 5% CO2/95% O2. The meninges, dura, and dorsal and ventral roots were then removed from the lumbar region of the spinal cord under a dissecting microscope. The “cleaned” lumbar region of the spinal cord was glued to the vibratome stage and immediately immersed in ice cold, bubbled, sucrose solution. For current-clamp recordings, 300 to 350 μm parasagittal slices were cut to preserve the dendritic arbour of lamina I neurons, while 350 to 400 μm transverse slices were prepared for voltage-clamped Nav channel recordings. Slices were allowed to recover for 1 hour at 35° C. in Ringer solution containing (in mM): 125 NaCl, 20 D-Glucose, 26 NaHCO3, 3 KCl, 1.25 NaH2PO4, 2 CaCl2, 1 MgCl2, 1 kynurenic acid, 0.1 picrotoxin, bubbled with 5% CO2/95% O2. The slice recovery chamber was then returned to room temperature (20 to 22° C.) and all recordings were performed at this temperature. […]

[5] = Rat Early Pharmacokinetic (EPK) study; format: in vivo; conditions: 3 mg/kg PO, PG (propylene glycol)
Procedure: Male Sprague-Dawley rats were dosed via oral (PO) gavage in the detailed formulation. Blood samples were collected from the animals at 6 timepoints out to 4 hours post-dose. Pharmacokinetic analysis was performed on the LC-MS/MS measured concentrations for each timepoint of each compound.

T1 sequence (Q14524 whole entry): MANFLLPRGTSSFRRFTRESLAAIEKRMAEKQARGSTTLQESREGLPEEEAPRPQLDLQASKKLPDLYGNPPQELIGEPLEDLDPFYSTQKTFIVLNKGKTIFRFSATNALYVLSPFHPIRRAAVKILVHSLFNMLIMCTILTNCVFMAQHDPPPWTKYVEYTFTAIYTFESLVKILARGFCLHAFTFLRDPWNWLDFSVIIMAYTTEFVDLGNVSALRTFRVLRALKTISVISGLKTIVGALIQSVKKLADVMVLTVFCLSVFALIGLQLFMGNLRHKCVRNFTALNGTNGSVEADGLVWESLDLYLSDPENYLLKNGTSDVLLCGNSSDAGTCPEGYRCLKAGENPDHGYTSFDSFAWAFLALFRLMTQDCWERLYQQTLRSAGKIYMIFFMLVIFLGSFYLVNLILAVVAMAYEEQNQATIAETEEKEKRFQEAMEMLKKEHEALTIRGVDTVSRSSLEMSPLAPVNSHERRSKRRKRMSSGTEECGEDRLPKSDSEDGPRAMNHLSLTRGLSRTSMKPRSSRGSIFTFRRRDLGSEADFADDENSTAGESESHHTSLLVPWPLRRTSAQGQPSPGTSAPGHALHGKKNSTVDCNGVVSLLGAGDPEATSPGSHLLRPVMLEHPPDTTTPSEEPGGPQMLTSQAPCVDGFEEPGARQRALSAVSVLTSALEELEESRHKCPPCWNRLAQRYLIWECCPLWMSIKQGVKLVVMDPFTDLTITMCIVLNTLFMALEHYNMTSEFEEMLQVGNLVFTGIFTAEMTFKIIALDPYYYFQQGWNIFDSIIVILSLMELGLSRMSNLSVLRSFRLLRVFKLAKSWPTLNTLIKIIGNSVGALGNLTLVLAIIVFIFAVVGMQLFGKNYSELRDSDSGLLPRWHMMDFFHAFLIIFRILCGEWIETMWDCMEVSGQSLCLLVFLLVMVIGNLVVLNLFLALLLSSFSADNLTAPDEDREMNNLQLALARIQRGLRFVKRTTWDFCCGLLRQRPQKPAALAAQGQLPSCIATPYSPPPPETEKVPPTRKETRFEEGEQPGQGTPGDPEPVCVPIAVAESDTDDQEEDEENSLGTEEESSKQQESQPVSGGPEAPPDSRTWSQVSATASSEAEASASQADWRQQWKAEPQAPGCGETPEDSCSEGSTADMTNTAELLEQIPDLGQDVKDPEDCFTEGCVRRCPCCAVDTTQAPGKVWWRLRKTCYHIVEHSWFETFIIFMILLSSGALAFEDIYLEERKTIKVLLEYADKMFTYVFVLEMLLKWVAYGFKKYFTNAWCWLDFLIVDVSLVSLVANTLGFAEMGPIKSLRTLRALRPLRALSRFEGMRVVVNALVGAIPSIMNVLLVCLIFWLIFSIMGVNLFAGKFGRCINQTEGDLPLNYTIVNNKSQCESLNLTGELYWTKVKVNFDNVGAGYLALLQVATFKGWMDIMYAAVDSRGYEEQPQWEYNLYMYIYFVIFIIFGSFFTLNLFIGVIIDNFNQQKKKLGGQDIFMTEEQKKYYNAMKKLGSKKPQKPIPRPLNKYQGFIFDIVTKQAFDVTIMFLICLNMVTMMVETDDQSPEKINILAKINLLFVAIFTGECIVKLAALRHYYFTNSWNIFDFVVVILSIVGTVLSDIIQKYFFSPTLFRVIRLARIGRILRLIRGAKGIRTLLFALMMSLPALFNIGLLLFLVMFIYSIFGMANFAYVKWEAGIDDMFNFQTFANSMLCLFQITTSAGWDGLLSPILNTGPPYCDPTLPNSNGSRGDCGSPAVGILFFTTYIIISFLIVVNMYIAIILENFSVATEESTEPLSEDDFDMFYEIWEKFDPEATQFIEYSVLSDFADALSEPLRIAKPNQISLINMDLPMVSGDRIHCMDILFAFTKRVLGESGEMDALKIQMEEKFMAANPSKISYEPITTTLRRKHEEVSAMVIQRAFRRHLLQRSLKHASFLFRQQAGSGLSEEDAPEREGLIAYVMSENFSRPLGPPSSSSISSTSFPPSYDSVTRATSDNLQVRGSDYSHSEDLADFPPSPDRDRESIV

Row | SMILES | Inhibition of the cardiac Nav 1.5 channel (statement) ([1]; HEK cells expressing human Nav1.5) | IC50 ([1]; cardiac action potential waveform at 1 Hz, read-out: HNAV 1.5 CARDIAC AP 1 Hz IC50) [µM] | Epilepsy 6 Hz (% Protected) ([2]; 0.25 hour) [%] | Epilepsy 6 Hz (% Protected) ([2]; 0.5 hour) [%] | Epilepsy 6 Hz (% Protected) ([2]; 1 hour) [%] | Epilepsy 6 Hz (% Protected) ([2]; 2 hours) [%] | ED50 ([2]; Mus musculus, 32 mA, mice) [mg/kg] | TD50 [3] [mg/kg] | % Spike Change (Mean; % change from control) [4] [%] | Dose Normalized AUC [5] [nM·h] | Dose Normalized Cmax [5] [nM] | Tmax ([5]; male, Sprague-Dawley, blood) [min] | Epilepsy 6 Hz (% Protected) ([2]; 4 hours) [%]
1 | O=C1CN(C(=O)CC(c2ccccc2)c2ccccc2)CCN1 [Compound 4, 4-(3,3-diphenylpropanoyl)piperazin-2-one] | did not act as inhibitors | ≥ 300 | 50 | 88 | 13 | 25 | 192 | 370 | −5.3 | 522 | 832 | 15 | 
2 | O=C1CN(C(=O)CC(c2ccc(Cl)cc2)c2ccc(Cl)cc2)CCN1 [Compound 3, 4-(3,3-bis(4-chlorophenyl)propanoyl)piperazin-2-one] |  |  | 0 | 0 | 0 | 0 |  |  | 28.7 |  |  |  | 0
